Source: ChEMBL document CHEMBL2390918, “Cinnamides as selective small-molecule inhibitors of a cellular model of breast cancer stem cells” (Bioorg Med Chem Lett, 2013)
The source made the active and inactive calls. The calls are words filed in the database; no cut-off is given here.

Assays:
[1] = Selectivity ratio of EC50 for human HMLE cells expressing shRNA and GFP to EC50 for human CSC-like HMLE cells expressing shRNA and epithelial cadherin; format: ADME, cell-based; details: read-out: Ratio EC50
[2] = Cytotoxicity against human HMLE cells expressing shRNA and GFP after 70 to 74 hrs by Cell Titer Glo assay; format: cell-based
[3] = Cytotoxicity against human CSC-like HMLE cells expressing shRNA and epithelial cadherin after 70 to 74 hrs by Cell Titer Glo assay; format: functional, cell-based
[4] = Cytotoxicity against human HMLE cells expressing shRNA and GFP at 20 uM after 70 to 74 hrs by Cell Titer Glo assay; format: cell-based
HMLE = assay: Cytotoxicity against human CSC-like HMLE cells expressing shRNA and epithelial cadherin at 20 uM after 70 to 74 hrs by Cell Titer Glo assay; format: functional, cell-based
[5] = Displacement of [3H]GABA from GABA transporter in Wistar rat cerebral cortex after 20 mins; format: tissue-based
Rattus norvegicus [6] = species on record: Rattus norvegicus; assay: Displacement of [3H]GABA from GABA transporter in Wistar rat cerebral cortex at 10 uM after 20 mins relative to control; format: tissue-based
[7] = Selectivity ratio of EC50 for human CSC-like HMLE cells expressing shRNA and epithelial cadherin to EC50 for human HMLE cells expressing shRNA and GFP; format: ADME, cell-based; details: read-out: Ratio EC50
[8] = target: 5-hydroxytryptamine receptor 3A (Homo sapiens) (UniProt P46098); details: HEK293, 10 uM
[9] = target: 5-hydroxytryptamine receptor 1A (Homo sapiens) (UniProt P08908); assay: Displacement of [3H]8-OH-DPAT from human recombinant 5HT1A receptor expressed in CHOK1 cells at 10 uM after 60 mins relative to control; format: cell-based; details: CHO-K1
Rattus norvegicus [10] = species on record: Rattus norvegicus; assay: Displacement of [125I]Triiodothyronine from thyroid hormone receptor in Wistar rat liver at 10 uM after 18 hrs relative to control
[11] = Solubility in PBS at 100 uM after 24 hrs at pH 7.4 by UPLC-MS analysis; format: physicochemical
Substance-P receptor [12] = target: T1, Substance-P receptor (Homo sapiens, UniProt P25103); assay: Displacement of [3H]Substance P from human recombinant substance P receptor expressed in CHO cells after 90 mins; format: cell-based
Substance-P receptor [13] = target: T1, Substance-P receptor; assay: Displacement of [3H]Substance P from human recombinant substance P receptor expressed in CHO cells at 10 uM after 90 mins relative to control; format: cell-based
[14] = target: 5-hydroxytryptamine receptor 2B (Homo sapiens) (UniProt P41595); details: CHO-K1, 10 uM
[15] = Displacement of [3H]Batrachotoxin from sodium channel site 2 in Wistar rat brain after 60 mins
Rattus norvegicus [16] = species on record: Rattus norvegicus; details: Wistar, 10 uM
[17] = target: Sodium-dependent dopamine transporter (Homo sapiens) (UniProt Q01959); details: CHO-K1, 10 uM
Chain of Sodium-dependent dopamine transporter (Homo sapiens) (Q01959 whole entry): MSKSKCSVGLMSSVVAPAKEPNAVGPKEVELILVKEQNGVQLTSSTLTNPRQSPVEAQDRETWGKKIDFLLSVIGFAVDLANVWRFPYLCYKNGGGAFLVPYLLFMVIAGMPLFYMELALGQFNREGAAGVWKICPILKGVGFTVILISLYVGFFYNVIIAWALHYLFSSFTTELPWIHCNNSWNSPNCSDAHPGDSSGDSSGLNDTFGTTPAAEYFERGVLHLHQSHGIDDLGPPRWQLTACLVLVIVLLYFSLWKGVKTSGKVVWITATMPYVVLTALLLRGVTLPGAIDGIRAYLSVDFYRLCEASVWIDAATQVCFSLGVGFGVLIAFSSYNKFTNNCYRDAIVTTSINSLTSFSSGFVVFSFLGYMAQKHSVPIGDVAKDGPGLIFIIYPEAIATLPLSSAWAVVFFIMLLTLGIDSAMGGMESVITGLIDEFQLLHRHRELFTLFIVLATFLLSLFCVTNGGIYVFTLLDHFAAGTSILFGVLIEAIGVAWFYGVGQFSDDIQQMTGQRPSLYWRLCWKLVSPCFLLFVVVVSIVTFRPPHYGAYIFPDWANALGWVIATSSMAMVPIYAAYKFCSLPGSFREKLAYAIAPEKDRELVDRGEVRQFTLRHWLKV

T1 sequence (P25103 whole entry): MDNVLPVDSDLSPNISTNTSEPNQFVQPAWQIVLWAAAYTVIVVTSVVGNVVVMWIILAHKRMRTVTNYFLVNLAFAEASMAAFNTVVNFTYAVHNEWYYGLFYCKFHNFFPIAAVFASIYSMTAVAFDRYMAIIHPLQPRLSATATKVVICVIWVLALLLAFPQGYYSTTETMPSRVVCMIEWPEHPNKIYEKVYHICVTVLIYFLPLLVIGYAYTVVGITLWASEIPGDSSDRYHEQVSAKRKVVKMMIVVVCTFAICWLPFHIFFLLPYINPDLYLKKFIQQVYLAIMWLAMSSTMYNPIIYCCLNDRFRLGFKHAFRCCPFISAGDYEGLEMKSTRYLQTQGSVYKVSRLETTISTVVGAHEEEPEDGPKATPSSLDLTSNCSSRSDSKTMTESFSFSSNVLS
Chain of 5-hydroxytryptamine receptor 3A (Homo sapiens) (P46098 whole entry): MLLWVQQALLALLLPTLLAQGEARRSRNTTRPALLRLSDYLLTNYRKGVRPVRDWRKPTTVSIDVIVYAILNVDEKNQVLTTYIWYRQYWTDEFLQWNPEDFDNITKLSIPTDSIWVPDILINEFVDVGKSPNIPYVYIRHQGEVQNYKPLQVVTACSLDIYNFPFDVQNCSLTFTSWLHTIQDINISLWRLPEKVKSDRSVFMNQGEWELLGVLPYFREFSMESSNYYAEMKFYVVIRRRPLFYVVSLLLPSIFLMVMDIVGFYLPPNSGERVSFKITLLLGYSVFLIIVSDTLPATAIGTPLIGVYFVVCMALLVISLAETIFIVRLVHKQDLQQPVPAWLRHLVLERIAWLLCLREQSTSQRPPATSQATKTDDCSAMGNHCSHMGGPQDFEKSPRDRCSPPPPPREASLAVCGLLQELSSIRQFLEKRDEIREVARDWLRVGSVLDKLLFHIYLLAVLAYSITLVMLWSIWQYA
Chain of 5-hydroxytryptamine receptor 1A (Homo sapiens) (P08908 whole entry): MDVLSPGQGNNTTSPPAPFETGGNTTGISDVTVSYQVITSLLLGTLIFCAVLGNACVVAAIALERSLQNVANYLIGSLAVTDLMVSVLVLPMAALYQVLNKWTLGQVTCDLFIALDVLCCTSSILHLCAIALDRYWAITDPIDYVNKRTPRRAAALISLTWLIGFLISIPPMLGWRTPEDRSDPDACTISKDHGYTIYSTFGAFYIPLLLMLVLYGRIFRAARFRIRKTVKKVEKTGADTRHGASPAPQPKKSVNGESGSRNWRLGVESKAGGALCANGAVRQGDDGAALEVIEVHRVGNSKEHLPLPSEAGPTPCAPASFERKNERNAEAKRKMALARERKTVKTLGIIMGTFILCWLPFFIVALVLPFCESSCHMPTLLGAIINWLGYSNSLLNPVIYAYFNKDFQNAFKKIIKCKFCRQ
Chain of 5-hydroxytryptamine receptor 2B (Homo sapiens) (P41595 whole entry): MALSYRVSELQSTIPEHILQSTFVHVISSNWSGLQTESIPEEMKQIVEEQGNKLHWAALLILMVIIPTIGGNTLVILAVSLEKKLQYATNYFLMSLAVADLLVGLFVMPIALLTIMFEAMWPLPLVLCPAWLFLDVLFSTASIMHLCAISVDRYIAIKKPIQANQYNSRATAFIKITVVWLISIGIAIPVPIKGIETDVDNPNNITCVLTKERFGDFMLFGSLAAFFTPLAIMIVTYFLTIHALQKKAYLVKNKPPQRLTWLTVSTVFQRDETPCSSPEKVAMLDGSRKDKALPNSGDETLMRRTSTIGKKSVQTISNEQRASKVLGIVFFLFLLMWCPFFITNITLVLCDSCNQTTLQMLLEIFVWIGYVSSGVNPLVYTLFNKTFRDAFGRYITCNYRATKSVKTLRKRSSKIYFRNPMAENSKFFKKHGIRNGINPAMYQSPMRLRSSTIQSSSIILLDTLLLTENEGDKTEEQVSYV

Compound | EC50 [3] | Activity [4] | Activity (HMLE) | also measured
O=C(/C=C/c1ccc(-c2cccnc2)cc1)NC1=NCCS1 | 3.85 µM |  |  | selectivity ratio [1]: 1.47; EC50 [2]: 5.65 µM
Cc1cccc(/C=C/C(=O)NC2=NCCS2)c1 |  | Non-toxic | inactive | 
O=C(/C=C/c1ccc(Cl)c(Cl)c1)NC1=NCCS1 |  | Non-toxic | inactive | 
O=C(O)C1=CCCN(CCON=C(c2ccccc2)c2ccccc2)C1 |  |  |  | IC50 [5]: 0.2 µM; Ki [5]: 0.2 µM; inhibition (Rattus norvegicus [6]): -6%
CC(C)c1ccc(/C=C/C(=O)NC2CCCC2)cc1 | 123 µM |  |  | selectivity ratio [7]: 2.07; EC50 [2]: 59.6 µM
CC(C)c1ccc(/C=C(\C#N)C(=O)NC2=NCCS2)cc1 |  | Non-toxic | inactive | 
COc1cc(/C=C/C(=O)NC2=NCCS2)cc(OC)c1OC |  | Non-toxic | inactive | 
Cn1c(C(=O)NC2=NCCS2)cc2ccccc21 |  | Non-toxic | inactive | 
Cc1ccc(/C=C/C(=O)NC2=NCCS2)cc1 | 16 µM | Non-toxic |  | 
CC(C)c1ccc(CCC(=O)NC2=NCCS2)cc1 | 9.91 µM | Non-toxic |  | 
COc1cc(C(C)C)ccc1/C=C/C(=O)NC1=NCCS1 | 28.4 µM | Non-toxic |  | 
Cc1c(C(=O)NC2=NCCS2)oc2ccccc12 |  | Non-toxic | inactive | 
COc1ccc(/C=C/C(=O)NC2=NCCS2)c(OC)c1OC |  | Non-toxic | inactive | 
CC(C)c1ccc(/C=C/C(=O)N(C)C2=NCCS2)cc1 |  |  | inactive | EC50 [2]: 21.1 µM
CC(C)c1ccc(/C=C\C(=O)NC2=NCCS2)cc1 |  | Non-toxic | inactive | 
CC(C)c1ccc(/C=C/C(=O)Nc2nccs2)cc1 | 7.26 µM |  |  | selectivity ratio [7]: 2.05; EC50 [2]: 3.55 µM
C/C(=C\C(=O)NC1=NCCS1)c1ccc(C)cc1 |  | Non-toxic | inactive | 
COc1ccc(OC)c(/C=C/C(=O)NC2=NCCS2)c1 |  | Non-toxic | inactive | 
O=C(/C=C/c1ccccc1Cl)NC1=NCCS1 | 35 µM | Non-toxic |  | 
COc1ccccc1/C=C/C(=O)NC1=NCCS1 |  |  | inactive | EC50 [2]: 93.3 µM

Compound | EC50 [3] | Activity [4] | Activity (HMLE) | also measured
COc1ccc(/C=C/C(=O)NC2=NCCS2)c(OC)c1 | 9.91 µM | Non-toxic |  | 
CN1[C@@H]2CC[C@H]1C[C@@H](OC(=O)c1cc(Cl)cc(Cl)c1)C2 |  |  |  | inhibition [8]: 3%
O=C(/C=C/c1ccc(Cl)cc1Cl)NC1=NCCS1 |  | Non-toxic | inactive | 
CC(C)c1ccc(C#CC(=O)NC2=NCCS2)cc1 |  | Non-toxic | inactive | 
CC(C)Cc1ccc(/C=C/C(=O)NC2=NCCS2)cc1 | 0.478 µM |  |  | selectivity ratio [1]: 4.54; EC50 [2]: 2.17 µM
O=C(/C=C/c1ccc(C(F)(F)F)cc1)NC1=NCCS1 |  | Non-toxic | inactive | 
CC(C)c1ccc(/C=C/C(=O)Nc2nccn2C)cc1 | 5.97 µM |  |  | selectivity ratio [7]: 1.28; EC50 [2]: 4.65 µM
CN1C[C@H](CNC(=O)OCc2ccccc2)C[C@@H]2c3cccc4c3c(cn4C)C[C@H]21 |  |  |  | inhibition [9]: -8%
O=C(/C=C/c1ccc(-c2ccccc2)cc1)NC1=NCCS1 | 0.65 µM |  |  | selectivity ratio [1]: 53.1; EC50 [2]: 34.6 µM
CCN(CC)C(=O)/C=C/c1ccc(C(C)C)cc1 |  | Non-toxic | inactive | 
N[C@@H](Cc1cc(I)c(Oc2ccc(O)c(I)c2)c(I)c1)C(=O)O |  |  |  | inhibition (Rattus norvegicus [10]): 6%
CC(C)c1ccc(/C=C/C(=O)NC2=NCCS2)cc1 | 50.6 µM |  |  | solubility at 24 h, 100 µM [11]: < 1 µM; selectivity ratio [7]: 21.5; EC50 [2]: 2.35 µM
CC(C)c1ccc(/C=C/C(=O)Nc2ncc[nH]2)cc1 |  |  | inactive | EC50 [2]: 51.6 µM
N#Cc1ccccc1/C=C/C(=O)NC1=NCCS1 |  | Non-toxic | inactive | 
COc1ccc(/C=C/C(=O)NC2=NCCS2)cc1OC |  | Non-toxic | inactive | 
C/C(=C\C(=O)NC1=NCCS1)c1ccc(CC(C)C)cc1 |  | Non-toxic | inactive | 
COc1cccc(/C=C/C(=O)NC2=NCCS2)c1 | 62.1 µM |  |  | EC50 [2]: 96.2 µM
CC(C)c1ccc(/C=C/C(=O)Nc2ccccc2)cc1 | 3.28 µM |  |  | selectivity ratio [7]: 0.95; EC50 [2]: 3.44 µM
CN(C)c1ccc(/C=C/C(=O)NC2=NCCS2)cc1 | 27.4 µM | Non-toxic |  | 
Ic1ccccc1N[C@@H]1C2CCN(CC2)[C@@H]1C(c1ccccc1)c1ccccc1 |  |  |  | IC50 (Substance-P receptor [12]): 0.0036 µM; Ki (Substance-P receptor [12]): 0.0026 µM; inhibition (Substance-P receptor [13]): 0%

Compound | EC50 [3] | Activity [4] | Activity (HMLE) | also measured
O=C(c1ccc(F)cc1)C1CCN(CCn2c(=O)[nH]c3ccccc3c2=O)CC1 |  |  |  | inhibition [14]: 42%
CC(C)c1ccc(/C=C/C(=O)O)cc1 |  | Non-toxic | inactive | 
Cc1ccccc1/C=C/C(=O)NC1=NCCS1 |  | Non-toxic | inactive | 
CCCCOc1cc(C(=O)NCCN(CC)CC)c2ccccc2n1 [DIBUCAINE] |  |  |  | IC50 [15]: 0.61 µM; Ki [15]: 0.55 µM; inhibition (Rattus norvegicus [16]): 10%
N#Cc1cccc(/C=C/C(=O)NC2=NCCS2)c1 |  | Non-toxic | inactive | 
Fc1ccc(C(OCCN2CCN(CCCc3ccccc3)CC2)c2ccc(F)cc2)cc1 |  |  |  | inhibition [17]: 5%
CC(C)c1ccc(/C=C/C(=O)NC2=NC(=O)CS2)cc1 | 27 µM |  |  | selectivity ratio [7]: 2.03; EC50 [2]: 13.3 µM
CC(C)c1ccc(/C=C/C(=O)Nc2nncs2)cc1 | 9.97 µM |  |  | selectivity ratio [7]: 0.73; EC50 [2]: 13.6 µM
CCNC(=O)/C=C/c1ccc(C(C)C)cc1 |  | Non-toxic | inactive | 
CC(C)(C)c1ccc(/C=C/C(=O)NC2=NCCS2)cc1 |  |  | inactive | EC50 [2]: 20.6 µM
O=C(/C=C/c1ccc(F)cc1)NC1=NCCS1 |  | Non-toxic | inactive | 
O=C(/C=C/c1ccc(Cl)cc1)NC1=NCCS1 | 13.6 µM |  |  | selectivity ratio [1]: 0.73; EC50 [2]: 9.97 µM
O=C(/C=C/c1cc(Cl)ccc1Cl)NC1=NCCS1 |  | Non-toxic | inactive | 
N#Cc1ccc(/C=C/C(=O)NC2=NCCS2)cc1 | 26.9 µM | Non-toxic |  | 
CC(C)c1ccc(C2CC2C(=O)NC2=NCCS2)cc1 (centres undefined) |  | Non-toxic | inactive | 
COc1cc(OC(C)C)ccc1/C=C/C(=O)NC1=NCCS1 |  | Non-toxic | inactive | 
O=C(/C=C/c1ccccc1)NC1=NCCS1 |  | Non-toxic | inactive | 
O=C(NC1=NCCS1)c1cc2ccccc2[nH]1 |  | Non-toxic | inactive | 
O=C(/C=C/c1cccc(Cl)c1)NC1=NCCS1 | 15 µM |  |  | selectivity ratio [1]: 1.44; EC50 [2]: 21.5 µM
